According to the supplement of paper PMC5908809:

Tests used:
SNK-6 (IL-2 2.5 ng/mL) [1] = assay: percent inhibition of viability; higher = more inhibition; details: 72 h
KHYG-1 (IL-2 2.5 ng/mL) [2] = assay: as above; details: 72 h
[3] = system: normal primary NK cells, pool 3 (3 donors) (IL-2 2.5 ng/mL); assay: as above; details: 72 h
IMC-1 (IL-2 20 ng/mL) [4] = assay: as above; details: 72 h
NK-92 (IL-2 2.5 ng/mL) [5] = assay: as above; details: 72 h
[6] = system: normal primary NK cells, pool 1 (3 donors) (IL-2 2.5 ng/mL); assay: as above; details: 72 h
NKL (IL-2 2.5 ng/mL) [7] = assay: as above; details: 72 h
[8] = system: normal primary NK cells, pool 1 (3 donors), resting (IL-2 0 ng/mL); assay: as above; details: 72 h
KAI3 (IL-2 2.5 ng/mL) [9] = assay: as above; details: 72 h
NK-YS (IL-2 2.5 ng/mL) [10] = assay: as above; details: 72 h
DERL-7 (IL-2 2.5 ng/mL) [11] = assay: as above; details: 72 h
[12] = system: normal primary NK cells, pool 2 (3 donors) (IL-2 2.5 ng/mL); assay: as above; details: 72 h
YT (IL-2 2.5 ng/mL) [13] = assay: as above; details: 72 h
[14] = system: normal NK cells expanded with K562-aAPC; assay: as above; details: 72 h, IL-2 2.5 ng/mL
Description: (§1)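 Drug sensitivity and resistance testing on K562-aAPC-expanded normal NK cells: 5 concentrations (10-fold steps over a 10,000-fold range), 72 h at 37 °C, viability by CellTiter-Glo normalised to DMSO and benzethonium chloride controls; DSS from the fitted curve.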

[15] = system: normal NK cells expanded with K562-aAPC; assay: drug sensitivity score (DSS) (DSS units); higher = more sensitive; extreme values may be limits of the assay; details: 72 h; IL-2 2.5 ng/mL
Description: as §1

SNK-6 (IL-2 2.5 ng/mL) [16] = assay: as above; details: 72 h
KHYG-1 (IL-2 2.5 ng/mL) [17] = assay: as above; details: 72 h
[18] = system: normal primary NK cells, pool 3 (3 donors) (IL-2 2.5 ng/mL); assay: as above; details: 72 h
IMC-1 (IL-2 20 ng/mL) [19] = assay: as above; details: 72 h
NK-92 (IL-2 2.5 ng/mL) [20] = assay: as above; details: 72 h
[21] = system: normal primary NK cells, pool 1 (3 donors) (IL-2 2.5 ng/mL); assay: as above; details: 72 h
NKL (IL-2 2.5 ng/mL) [22] = assay: as above; details: 72 h
[23] = system: normal primary NK cells, pool 1 (3 donors), resting (IL-2 0 ng/mL); assay: as above; details: 72 h
KAI3 (IL-2 2.5 ng/mL) [24] = assay: as above; details: 72 h
NK-YS (IL-2 2.5 ng/mL) [25] = assay: as above; details: 72 h
DERL-7 (IL-2 2.5 ng/mL) [26] = assay: as above; details: 72 h
[27] = system: normal primary NK cells, pool 2 (3 donors) (IL-2 2.5 ng/mL); assay: as above; details: 72 h
YT (IL-2 2.5 ng/mL) [28] = assay: as above; details: 72 h

CCC(C)(C)C(=O)O[C@H]1C[C@@H](C)C=C2C=C[C@H](C)[C@H](CC[C@@H]3C[C@@H](O)CC(=O)O3)[C@H]21 [Simvastatin] (max concentration tested 10000 nM)
percent inhibition of viability [%]
Details	1 nM	10 nM	100 nM	1000 nM	10000 nM
DERL-7 (IL-2 2.5 ng/mL) [11]	-1.97	-3.51	4.88	4.07	10.3
IMC-1 (IL-2 20 ng/mL) [4]	-0.2	-3.36	3.54	3.84	38.1
KAI3 (IL-2 2.5 ng/mL) [9]	3.02	-8.09	-7.7	-3.05	22.5
KHYG-1 (IL-2 2.5 ng/mL) [2]	2.27	-0.82	3.03	5.63	11.2
NK-92 (IL-2 2.5 ng/mL) [5]	-8.62	-9.55	2.91	-5.14	-1.54
NK-YS (IL-2 2.5 ng/mL) [10]	-1.72	2.03	2	6.51	68.6
NKL (IL-2 2.5 ng/mL) [7]	-16.6	-8.92	0.63	6	68.9
SNK-6 (IL-2 2.5 ng/mL) [1]	4.57	-0.33	6.13	-5.3	1.07
YT (IL-2 2.5 ng/mL) [13]	0.42	-0.1	0.72	2.62	23.9
[3]	-9.67	-10.8	-5.99	4.87	2.32
[6]	-7.84	9.33	-16.5	-3.95	8.72
[8]	-0.52	-1.88	-12.8	-6.51	13.3
[12]	-9.03	-7.28	-6.35	14.3	19.6
[14]	0.17	-4.47	-1.19	-2.06	6.89

Details	drug sensitivity score
DERL-7 (IL-2 2.5 ng/mL) [26]	0
IMC-1 (IL-2 20 ng/mL) [19]	2.48
KAI3 (IL-2 2.5 ng/mL) [24]	0.61
KHYG-1 (IL-2 2.5 ng/mL) [17]	0
NK-92 (IL-2 2.5 ng/mL) [20]	0
NK-YS (IL-2 2.5 ng/mL) [25]	4.82
NKL (IL-2 2.5 ng/mL) [22]	4.74
SNK-6 (IL-2 2.5 ng/mL) [16]	0
YT (IL-2 2.5 ng/mL) [28]	1.26
[15]	0
[18]	0
[21]	0
[23]	0.04
[27]	1.89

C=CCN(/C=C1/C(=O)O[C@H](COC)[C@@]2(C)C1=C(O)C(=O)C1=C2[C@H](OC(C)=O)C[C@]2(C)C(=O)CC[C@@H]12)CC=C [Sonolisib] (max concentration tested 10000 nM)
percent inhibition of viability [%]
Details	1 nM	10 nM	100 nM	1000 nM	10000 nM
DERL-7 (IL-2 2.5 ng/mL) [11]	4.44	0.05	7.66	7.97	25.7
IMC-1 (IL-2 20 ng/mL) [4]	-9.13	-2.03	-1.28	-0.72	6.3
KAI3 (IL-2 2.5 ng/mL) [9]	-2.28	-8.79	-2.59	6.95	37.8
KHYG-1 (IL-2 2.5 ng/mL) [2]	-3.26	-9.75	-5.87	-0.67	19.3
NK-92 (IL-2 2.5 ng/mL) [5]	-0.51	-6.14	4.9	21.8	43.3
NK-YS (IL-2 2.5 ng/mL) [10]	-0.83	-2.4	-0.43	13.8	28.2
NKL (IL-2 2.5 ng/mL) [7]	-7.87	-4.63	-1.36	21.9	28.6
SNK-6 (IL-2 2.5 ng/mL) [1]	-13.7	-20.8	-21.5	-12.3	28.8
YT (IL-2 2.5 ng/mL) [13]	-3.75	-4.21	-0.91	9.17	19.1
[3]	-11.6	9.95	14.7	4.05	31.2
[6]	-5.92	11.5	7.17	23.3	57
[8]	-7.82	8.6	11.1	16.4	59.7
[12]	-5.83	0.64	8.59	17.3	40.2
[14]	-4.81	-6.86	-3.23	3.22	31.4

Details	drug sensitivity score
DERL-7 (IL-2 2.5 ng/mL) [26]	1.49
IMC-1 (IL-2 20 ng/mL) [19]	0
KAI3 (IL-2 2.5 ng/mL) [24]	2.98
KHYG-1 (IL-2 2.5 ng/mL) [17]	0.5
NK-92 (IL-2 2.5 ng/mL) [20]	4.58
NK-YS (IL-2 2.5 ng/mL) [25]	2.85
NKL (IL-2 2.5 ng/mL) [22]	3.66
SNK-6 (IL-2 2.5 ng/mL) [16]	0.79
YT (IL-2 2.5 ng/mL) [28]	1.45
[15]	1.91
[18]	2.06
[21]	5.59
[23]	5.24
[27]	3.83
